Values of other authors in publication PMC11647681, “Discovery of Non-Covalent Inhibitors for SARS-CoV-2 PLpro: Integrating Virtual Screening, Synthesis, and Experimental Validation” (ACS Medicinal Chemistry Letters, 2024).

Tested on: SARS-CoV-2, and its variants
Parameters: method as in PMID 38547259
Settings: cited from earlier work

CCn1ccc(-c2cc(-c3cnn(C)c3)cc([C@@H](C)NC(=O)c3cc(OCCN(C)C)ccc3C)c2)n1 [Jun12682]
activity against SARS-CoV-2, and its variants, in vivo: confirmed
